Measurements reported in PMC4552634, “A New Set of Chemical Starting Points with Plasmodium falciparum Transmission-Blocking Potential for Antimalarial Drug Discovery” (PLoS ONE, 2015).
Values joined by “and” are separate entries in the source; they are usually repeats but may differ in a detail not shown here. Equal entries are not always repeated. Where two headings read alike, the source gives them in different places.

Columns and labels:
[1] = test system: HepG2 cells; assay: Cytotoxicity in HepG2 cells (intracellular ATP, ATPlite, 48 h); format: cell-based, human; conditions: HepG2 cells; IC50 per ratio column head; unit inferred
[2] = test system: P. falciparum stage V gametocytes; assay: Gametocytocidal ATP bioluminescence assay (single point 5 μM and 1 μM, dose-response); format: cell-based, Plasmodium falciparum; conditions: for Ratio IC50 HepG2/IC50 P. falciparum: IC50 HepG2 divided by IC50 P. falciparum gametocytes
Procedure: Purified stage IV-V gametocytes were obtained as previously described [10]. Single point ATP bioluminescence assay and dose–response of positive hits was determined in accordance with the previously published protocol [10].

[3] = test system: P. falciparum asexual stages; conditions: asexual stages; TCAMS data; read-out: IC50 asexual; cited from earlier work
[4] = P. falciparum gametocytes, average, read-out: IC50 Pf Gametocytes average, IC50 (µM) average
[5] = sexual stages (gametocytes), dose-response, read-out: IC50 sexual

Structure (SMILES) | IC50 [1] | Ratio IC50 HepG2/IC50 P. falciparum [2] | IC50 [2, 4] | IC50 [2, 5] [µM] | IC50 [3] [nM]
C#CCCOc1ccc2ccccc2c1CNCCCCCCNCc1c(OCCC#C)ccc2ccccc12 [TCMDC-137832] | 5500 nM | 14 | 0.41 µM | 0.405 | 811
C#CCOc1ccc2ccccc2c1CNCCCCCCNCc1c(OCC#C)ccc2ccccc12 [TCMDC-137838] | 3190 nM | 6.38 | 0.5 µM |  | 780
COc1cc2ccccc2c(OC)c1CCNCCCCNCCc1c(OC)cc2ccccc2c1OC [TCMDC-137842] | 3200 nM | 10 | 0.31 µM | 0.305 | 891
COc1cc2ccccc2c(OC)c1CNCCCCCCNCc1c(OC)cc2ccccc2c1OC [TCMDC-137843] | 4250 nM | 13 | 0.32 µM | 0.319 | 988
CCCCOc1cc(OC)c2ccccc2c1CCNCCCCNCCc1c(OCCCC)cc(OC)c2ccccc12 [TCMDC-137845] | 3000 nM | 6 | 0.5 µM |  | 1050
CCCCOc1c(CCNCCCCNCCc2cc(OC)c3ccccc3c2OCCCC)cc(OC)c2ccccc12 [TCMDC-137848] | 3100 nM | 39 | 0.08 µM |  | 925
FC(F)(F)COc1ccc(CNCCCCCCNCc2ccc(OCC(F)(F)F)c3ccccc23)c2ccccc12 [TCMDC-137853] | 3000 nM | 55 | 0.055 µM |  | 400
COc1c(CCNCCCCNCCc2cc(Cl)c3ccccc3c2OC)cc(Cl)c2ccccc12 [TCMDC-137869] | 3360 nM | 40 | 0.08 µM | 0.083 | 168
NC(N)=NN=Cc1c2ccccc2c(Cl)c2cc(Cl)ccc12 [TCMDC-137903] | 7500 nM | 3.2 | 2.35 µM | 2.35 | 791
c1ccc2c(CNCCCN3CCN(CCCNCc4c5ccccc5cc5ccccc45)CC3)c3ccccc3cc2c1 [TCMDC-137909] | 6280 nM | 60 | 0.11 µM | 0.105 | 182
COc1ccc2ccccc2c1CNCCCCCCNCc1c(OC)ccc2ccccc12 [TCMDC-137915] | 3590 nM | 14 | 0.25 µM | 0.253 | 712
CCOc1cc(CNCCCCCCNCc2cc(OCC)c(OCC)c3ccccc23)c2ccccc2c1OCC [TCMDC-137939] | 2700 nM | 3.62 | 0.75 µM | 0.745 | 284
COc1cc2ccccc2cc1CCNCCCCNCCc1cc2ccccc2cc1OC [TCMDC-137944] | 3390 nM | 32 | 0.11 µM | 0.105 | 403
COc1ccc2c(OC)c(CNCCCCCCNCc3ccc4cc(OC)ccc4c3OC)ccc2c1 [TCMDC-137953] | 3200 nM | 2 | 1.54 µM |  | 920
CCCCCCOc1ccc2ccccc2c1CNCCCCCCNCc1c(OCCCCCC)ccc2ccccc12 [TCMDC-137963] | 3300 nM | 7 | 0.48 µM |  | 1060
CC(C)Oc1ccc2ccccc2c1CNCCCCCCNCc1c(OC(C)C)ccc2ccccc12 [TCMDC-137965] | 2380 nM | 17 | 0.14 µM |  | 612
CCCOc1ccc2ccccc2c1CNCCCCCCNCc1c(OCCC)ccc2ccccc12 [TCMDC-137966] | 3100 nM | 9 | 0.34 µM |  | 791
CC(C)COc1ccc2ccccc2c1CNCCCCCCNCc1c(OCC(C)C)ccc2ccccc12 [TCMDC-137972] | 1880 nM | 18 | 0.1 µM | 0.103 | 695
CC(C)(C)c1ccc(-c2cc3c(ccc4nc(N)nc(N)c43)[nH]2)cc1 [TCMDC-137977] | 3260 nM | 6 | 0.55 µM |  | 113
CC(C)(C)c1ccc(-c2nc3c(ccc4nc(N)nc(N)c43)[nH]2)cc1 [TCMDC-137984] | 3850 nM | 19 | 0.21 µM | 0.205 | 158
CC(=O)c1ccc2nc[nH]c(=O)c2c1 [TCMDC-138172] | < 1560 nM | <3.9 | 0.4 µM |  | 722
Cc1nc(-c2cccc(Nc3ccnc4cc(-c5nccs5)ccc34)c2)no1 [TCMDC-138334] | 7620 nM | 25 | 0.3 µM |  | 322

Structure (SMILES) | IC50 [1] | Ratio IC50 HepG2/IC50 P. falciparum [2] | IC50 [2, 4] | IC50 [2, 5] [µM] | IC50 [3] [nM]
Cc1cc(NCCc2ccccc2)nc(/N=C(\N)Nc2ccccc2Cl)n1 [TCMDC-138370] | 13600 nM | 2.79 | 4.87 µM |  | 789
CN(C)CCNCc1ccc(-c2ccc3c(Nc4ccc(Oc5ccccc5)cc4)ccnc3c2)o1 [TCMDC-138399] | 7570 nM | 23 | 0.33 µM | 0.325 | 280
CN(C)CCN(C)Cc1cccc(-c2ccc3c(Nc4ccc(F)cc4Cl)ccnc3c2)c1 [TCMDC-138416] | 3600 nM | 7.5 | 0.48 µM |  | 110
C=CCC1OC(=O)c2cc(OC)cc(OC)c21 (stereo not shown) [TCMDC-138677] | < 1560 nM | <2.6 | 0.6 µM |  | 343
C=C(C)Cn1cc(C2CCN(CCN3CCC(CNC(=O)c4ccc(-c5ccc(C#N)cc5)cc4)CC3)CC2)c2ccccc21 [TCMDC-138854] | 3700 nM | 1.26 | 2.93 µM |  | 433
COc1c(C2CCN(CCN3CCC(CNC(=O)c4ccc(-c5ccc(C#N)cc5)cc4)CC3)CC2)ccc2c1CCCC2 [TCMDC-138859] | 3300 nM | 2.83 | 1.17 µM | 1.17 | 455
CC1(C)CC(NCCCCCCCOc2ccc(OCc3ccccc3)cc2)CC(C)(C)N1 [TCMDC-138958] | 3000 nM | 4.41 | 0.68 µM |  | 827
Clc1ccc(OCCC2CCN(CCCCCCCN3CCC(CCOc4ccc(Cl)c(Cl)c4)CC3)CC2)cc1Cl [TCMDC-138967] | 4400 nM and 2600 nM | 6 and 5.59 | 0.7 µM and 0.47 µM |  | 624
O=C(NCCCCN1CCC(c2c[nH]c3ccc(-c4ccccc4)cc23)CC1)c1ccc(-c2ccccc2)cc1 [TCMDC-139064] | 9400 nM | 5 | 1.83 µM |  | 985
O=C(/C=C/c1ccc(Cl)c(Cl)c1)NCCCCCN1CCCC(CNS(=O)(=O)c2cccc(C(F)(F)F)c2)C1 (stereo not shown) [TCMDC-139597] | 3800 nM | 0.4 | 8.63 µM |  | 950
CC(Cc1ccc(CNC(=O)NCc2ccc(CC(C)NCCc3cccc(Cl)c3)cc2)cc1)NCCc1cccc(Cl)c1 (stereo not shown) [TCMDC-139648] | 4180 nM | 7 | 0.61 µM |  | 685
CC(=O)N(Cc1ccc(CC(C)NCCc2cccc(Cl)c2)cc1)Cc1ccc(CC(C)NCCc2cccc(Cl)c2)cc1 (stereo not shown) [TCMDC-139678] | 2300 nM | 1.64 | 1.4 µM |  | 783
COc1ccc(CCNC(C)Cc2ccc(C(=O)Nc3ccc(CC(C)NCCc4cccc(Cl)c4)cc3)cc2)cc1 (stereo not shown) [TCMDC-139750] | 2400 nM | 4 | 0.62 µM |  | 248
CC(CCCC(=O)Nc1ccc(CC(C)NCCc2cccc(Cl)c2)cc1)NCCc1cccc(Cl)c1 (stereo not shown) [TCMDC-139798] | 4500 nM | 5.52 | 0.82 µM | 0.815 | 625
CC(CCCCC(=O)Nc1ccc(CC(C)NCCc2cccc(Cl)c2)cc1)NCCc1cccc(Cl)c1 (stereo not shown) [TCMDC-139799] | 6590 nM | 4 | 1.66 µM | 1.66 | 1010
CCOc1ccccc1CCNC(C)Cc1ccc(C(=O)Nc2ccc(CC(C)NCCc3cccc(Cl)c3)cc2)cc1 (stereo not shown) [TCMDC-139805] | 3500 nM | 5.71 | 0.61 µM | 0.613 | 539
CCCCCCCN1CC[C@@H](CCCc2ccnc3ccc(OCC4CCCNC4)cc23)[C@@H](CC)C1 (stereo partly shown) [TCMDC-139816] | 4180 nM | 14 | 0.3 µM |  | 625
CCCCCCCN1CC[C@@H](CCCc2ccnc3ccc(OCCC4CCNCC4)cc23)[C@@H](CC)C1 [TCMDC-139819] | 4500 nM | 11 | 0.42 µM | 0.415 | 610
CC(Cc1ccc(COc2ccc(CC(CO)NCCc3cccc(Cl)c3)cc2)cc1)NCCc1cccc(Cl)c1 (stereo not shown) [TCMDC-139844] | 3500 nM | 2.53 | 1.39 µM | 1.39 | 821
Cc1oc(-c2ccc(Cl)cc2)cc1C(=O)NCCC1CCN(CCCCCNC(=O)/C=C/c2ccc(Cl)c(Cl)c2)CC1 [TCMDC-140009] | 4100 nM | 0.755 | 5.43 µM |  | 446
CC(Cc1ccc(OCCCCOc2ccccc2)cc1)NCCC1CCCN1C (stereo not shown) [TCMDC-140017] | < 1560 nM | <16 | 0.095 µM |  | 40
